Reference: patent EP0796041B1, “NEW HERBICIDAL COMPOSITIONS” (RHONE-POULENC AGRO, priority 1994, dated 1996)

Tests used:
Assay in all cases: Field trial Europe (Experiment A1), pre-emergence weed control in maize
Type in all cases: in vivo
[1] = test system: Setaria viridis; settings: BOLOGNA, 54DAT
Description: (§1) The following experiments were conducted on Compound A and Compound B in various field research stations in Europe during May. Compound A (as a 750 g/kg water dispersible granule formulation) and Compound B (as a 600 g/kg water dispersible granule formulation) were tested at the following dose rates (note that hereafter ai means active ingredient): Compound A : 50, 75, 100, 125 g ai/ha Compound B : 240, 360, 480, 600 g ai/ha Compound A + Compound B : 50 + 240/360/480 g ai/ha 75 + 240/360/480 g ai/ha 100 + 240/360/480 g ai/ha Trial and application conditions are given below in Table 1 (in the Tables that follow DAT means days after treatment): Table 1 [table] Weeds were drilled on the same day as maize. All trials were sprayed pre-emergence of the maize on the same day as drilling or within 2 days afterwards. Soil conditions were warm and wet, so that the crop and weeds emerged and grew quickly. Rainfall or irrigation occurred within 15 days of application. In this Table "Obs" is the observed value the value in brackets (Exp) is the expected value calculated using the Colby formula.

[2] = test system: Amaranthus retroflexus; settings: ALZONNE, 46DAT
Description: as §1

[3] = test system: Echinochloa crus-galli
Description: as §1

[4] = test system: Polygonum lapathifolium; settings: CHAZAY, 64DAT
Description: as §1

CS(=O)(=O)c1cc(C(F)(F)F)ccc1C(=O)c1cnoc1C1CC1 [Cpd A, 5-cyclopropyl-4-(2-methylsulphonyl-4-trifluoromethyl)benzoylisozaxole]
percentage phytotoxicity Obs ([1]; Cpd A 50 g a.i./ha): 62%
percentage phytotoxicity Obs ([1]; Cpd A 75 g a.i./ha): 82%
percentage phytotoxicity Obs ([1]; Cpd A 100 g a.i./ha): 82%
percentage phytotoxicity Obs ([1]; Cpd A 125 g a.i./ha): 97%
percentage phytotoxicity Obs ([2]; Cpd A 50 g a.i./ha): 72%
percentage phytotoxicity Obs ([2]; Cpd A 75 g a.i./ha): 70%
percentage phytotoxicity Obs ([2]; Cpd A 100 g a.i./ha): 80%
percentage phytotoxicity Obs ([2]; Cpd A 125 g a.i./ha): 95%
percentage phytotoxicity Obs ([3]; ALZONNE, 46DAT, Cpd A 50 g a.i./ha): 45%
percentage phytotoxicity Obs ([3]; ALZONNE, 46DAT, Cpd A 75 g a.i./ha): 35%
percentage phytotoxicity Obs ([3]; ALZONNE, 46DAT, Cpd A 100 g a.i./ha): 82%
percentage phytotoxicity Obs ([3]; ALZONNE, 46DAT, Cpd A 125 g a.i./ha): 85%
percentage phytotoxicity Obs ([3]; BOLOGNA, 54DAT, Cpd A 50 g a.i./ha): 77%
percentage phytotoxicity Obs ([3]; BOLOGNA, 54DAT, Cpd A 75 g a.i./ha): 91%
percentage phytotoxicity Obs ([3]; BOLOGNA, 54DAT, Cpd A 100 g a.i./ha): 75%
percentage phytotoxicity Obs ([3]; BOLOGNA, 54DAT, Cpd A 125 g a.i./ha): 100%
percentage phytotoxicity Obs ([4]; Cpd A 50 g a.i./ha): 50%
percentage phytotoxicity Obs ([4]; Cpd A 75 g a.i./ha): 90%
percentage phytotoxicity Obs ([4]; Cpd A 100 g a.i./ha): 70%
percentage phytotoxicity Obs ([4]; Cpd A 125 g a.i./ha): 95%

CC(C)N(C(=O)COc1nnc(C(F)(F)F)s1)c1ccc(F)cc1 [Cpd B, N-isopropyl-(5-trifluoromethyl-1,3,4-thiadiazol-2-yl)-4-(4'-fluoro-oxyacetanilide)]
percentage phytotoxicity Obs ([1]; Cpd B 240 g a.i./ha): 85%
percentage phytotoxicity Obs ([1]; Cpd B 360 g a.i./ha): 82%
percentage phytotoxicity Obs ([1]; Cpd B 480 g a.i./ha): 86%
percentage phytotoxicity Obs ([1]; Cpd B 600 g a.i./ha): 82%
percentage phytotoxicity Obs ([2]; Cpd B 240 g a.i./ha): 30%
percentage phytotoxicity Obs ([2]; Cpd B 360 g a.i./ha): 10%
percentage phytotoxicity Obs ([2]; Cpd B 480 g a.i./ha): 67%
percentage phytotoxicity Obs ([2]; Cpd B 600 g a.i./ha): 45%
percentage phytotoxicity Obs ([3]; ALZONNE, 46DAT, Cpd B 240 g a.i./ha): 45%
percentage phytotoxicity Obs ([3]; ALZONNE, 46DAT, Cpd B 360 g a.i./ha): 65%
percentage phytotoxicity Obs ([3]; ALZONNE, 46DAT, Cpd B 480 g a.i./ha): 77%
percentage phytotoxicity Obs ([3]; ALZONNE, 46DAT, Cpd B 600 g a.i./ha): 90%
percentage phytotoxicity Obs ([3]; BOLOGNA, 54DAT, Cpd B 240 g a.i./ha): 35%
percentage phytotoxicity Obs ([3]; BOLOGNA, 54DAT, Cpd B 360 g a.i./ha): 52%
percentage phytotoxicity Obs ([3]; BOLOGNA, 54DAT, Cpd B 480 g a.i./ha): 65%
percentage phytotoxicity Obs ([3]; BOLOGNA, 54DAT, Cpd B 600 g a.i./ha): 75%
percentage phytotoxicity Obs ([4]; Cpd B 240 g a.i./ha): 25%
percentage phytotoxicity Obs ([4]; Cpd B 360 g a.i./ha): 0%
percentage phytotoxicity Obs ([4]; Cpd B 480 g a.i./ha): 25%
percentage phytotoxicity Obs ([4]; Cpd B 600 g a.i./ha): 40%
